Here are results for three compounds from patent publication US20230312576A1, “4-(7H-PYRROLO[2,3-D]PYRIMIDIN-4-YL)-3,6-DIHYDROPYRIDINE-1-(2H)-CARBOXAMIDE DERIVATIVES AS LIMK AND/OR ROCK KINASES INHIBITORS FOR USE IN THE TREATMENT OF CANCER” (CENTRE NATIONAL DE LA RECHERCHE SCIENTIFIQUE, priority 2020, published 2023).

As a reminder, the Ki is the equilibrium dissociation constant of an inhibitor or competing ligand from its target. Higher therefore signals weaker binding. Broadly, the inhibition is the percentage by which the read-out fell short of the control.

For one test, the system named is HeLa cells. The test can be described thus: Cytotoxicity, CellTiter-Glo Luminescent Cell Viability assay, HeLa. In kind it is cell-based. The conditions noted are these: 48 hours, read-out: EC50 (inhibitor concentration corresponding to half of live cells).
In another test the test system is MPNST cell line. The conditions noted are these: published data; cited from earlier work.
The target in another test is LIMK2 (Homo sapiens (Human), UniProt P53671). The test can be described thus: Lanthascreen Eu binding assay (TR-FRET), inhibition of LIMK2. The conditions noted are these: Lanthascreen Eu binding assay.
Sequence of LIMK2 (P53671 whole entry): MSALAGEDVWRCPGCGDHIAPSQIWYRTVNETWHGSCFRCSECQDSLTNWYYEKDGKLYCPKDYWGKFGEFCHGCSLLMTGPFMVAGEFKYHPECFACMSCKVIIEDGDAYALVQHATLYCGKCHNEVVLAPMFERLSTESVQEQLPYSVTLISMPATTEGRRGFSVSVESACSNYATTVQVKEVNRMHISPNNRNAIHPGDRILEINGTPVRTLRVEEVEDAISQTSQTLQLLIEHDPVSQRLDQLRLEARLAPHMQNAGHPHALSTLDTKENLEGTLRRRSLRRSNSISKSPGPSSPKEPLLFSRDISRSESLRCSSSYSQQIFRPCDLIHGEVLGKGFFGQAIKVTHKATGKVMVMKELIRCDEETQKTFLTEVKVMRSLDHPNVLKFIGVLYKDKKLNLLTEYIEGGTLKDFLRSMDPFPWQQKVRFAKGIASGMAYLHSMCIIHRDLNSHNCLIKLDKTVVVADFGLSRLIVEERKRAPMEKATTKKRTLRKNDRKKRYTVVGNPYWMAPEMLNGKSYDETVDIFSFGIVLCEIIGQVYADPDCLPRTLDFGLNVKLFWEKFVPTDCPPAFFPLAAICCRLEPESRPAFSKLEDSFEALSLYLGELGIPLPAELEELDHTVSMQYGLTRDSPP
In test [1] the test system is cofilin phosphorylation, HeLa cells. Put plainly: Cofilin phosphorylation by Western Blot (anti-phospho-Ser3-cofilin) in HeLa cells. It is filed as cell-based. The conditions noted are these: Homo sapiens, 2 h. On the technique in general: Immunoblotting shows a protein as a band on a membrane.
Test [2] concerns cofilin phosphorylation, MPNST88-14 cells. The test can be described thus: Cofilin phosphorylation by Western Blot in MPNST88-14 cells. It is filed as cell-based. The conditions noted are these: read-out: % inhibition Cofilin phosphorylation MPNST88-14 cells treated 2 h with 25 uM of inhibitor, MPNST88-14 cells, 25 uM.
Test [3] has as its system U2OS cells. Put plainly: Microtubule dynamics by visualizing mitotic spindles. The following applies: 2.5 μM, 24 hours. It is filed as cell-based.
The target of the next test is LIMK1 (Homo sapiens (Human), UniProt P53667). The test can be described thus: Lanthascreen Eu binding assay (TR-FRET), inhibition of LIMK1. The following applies: Lanthascreen Eu binding assay. (TR-FRET usually uses a lanthanide donor and a delayed reading to cut background.)
Sequence of LIMK1 (P53667 whole entry): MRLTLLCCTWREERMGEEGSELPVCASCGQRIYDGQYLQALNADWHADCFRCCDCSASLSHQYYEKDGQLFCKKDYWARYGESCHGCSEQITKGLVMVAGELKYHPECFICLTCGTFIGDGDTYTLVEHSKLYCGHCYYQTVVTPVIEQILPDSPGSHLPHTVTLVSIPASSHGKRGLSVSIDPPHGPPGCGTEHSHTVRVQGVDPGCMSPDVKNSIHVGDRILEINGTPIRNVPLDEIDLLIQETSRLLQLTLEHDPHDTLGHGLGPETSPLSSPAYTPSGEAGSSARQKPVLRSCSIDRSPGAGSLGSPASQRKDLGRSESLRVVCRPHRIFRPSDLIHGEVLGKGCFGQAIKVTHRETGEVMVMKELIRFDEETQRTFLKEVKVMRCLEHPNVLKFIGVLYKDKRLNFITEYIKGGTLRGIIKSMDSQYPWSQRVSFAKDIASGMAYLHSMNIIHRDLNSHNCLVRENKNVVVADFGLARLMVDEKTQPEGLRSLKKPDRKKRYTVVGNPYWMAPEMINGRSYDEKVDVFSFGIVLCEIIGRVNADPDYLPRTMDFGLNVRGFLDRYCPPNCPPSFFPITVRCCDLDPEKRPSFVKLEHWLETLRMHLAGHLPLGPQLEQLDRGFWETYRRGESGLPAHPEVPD
The target of the next test is ROCK1 (Homo sapiens (Human), UniProt Q13464). The test can be described thus: Z'Lyte assay, ROCK1 inhibition at a single concentration. The following applies: read-out: % inhibition (ROCK1) 1 uM, 1 uM. In kind it is biochemical.
Sequence of ROCK1 (Q13464 whole entry): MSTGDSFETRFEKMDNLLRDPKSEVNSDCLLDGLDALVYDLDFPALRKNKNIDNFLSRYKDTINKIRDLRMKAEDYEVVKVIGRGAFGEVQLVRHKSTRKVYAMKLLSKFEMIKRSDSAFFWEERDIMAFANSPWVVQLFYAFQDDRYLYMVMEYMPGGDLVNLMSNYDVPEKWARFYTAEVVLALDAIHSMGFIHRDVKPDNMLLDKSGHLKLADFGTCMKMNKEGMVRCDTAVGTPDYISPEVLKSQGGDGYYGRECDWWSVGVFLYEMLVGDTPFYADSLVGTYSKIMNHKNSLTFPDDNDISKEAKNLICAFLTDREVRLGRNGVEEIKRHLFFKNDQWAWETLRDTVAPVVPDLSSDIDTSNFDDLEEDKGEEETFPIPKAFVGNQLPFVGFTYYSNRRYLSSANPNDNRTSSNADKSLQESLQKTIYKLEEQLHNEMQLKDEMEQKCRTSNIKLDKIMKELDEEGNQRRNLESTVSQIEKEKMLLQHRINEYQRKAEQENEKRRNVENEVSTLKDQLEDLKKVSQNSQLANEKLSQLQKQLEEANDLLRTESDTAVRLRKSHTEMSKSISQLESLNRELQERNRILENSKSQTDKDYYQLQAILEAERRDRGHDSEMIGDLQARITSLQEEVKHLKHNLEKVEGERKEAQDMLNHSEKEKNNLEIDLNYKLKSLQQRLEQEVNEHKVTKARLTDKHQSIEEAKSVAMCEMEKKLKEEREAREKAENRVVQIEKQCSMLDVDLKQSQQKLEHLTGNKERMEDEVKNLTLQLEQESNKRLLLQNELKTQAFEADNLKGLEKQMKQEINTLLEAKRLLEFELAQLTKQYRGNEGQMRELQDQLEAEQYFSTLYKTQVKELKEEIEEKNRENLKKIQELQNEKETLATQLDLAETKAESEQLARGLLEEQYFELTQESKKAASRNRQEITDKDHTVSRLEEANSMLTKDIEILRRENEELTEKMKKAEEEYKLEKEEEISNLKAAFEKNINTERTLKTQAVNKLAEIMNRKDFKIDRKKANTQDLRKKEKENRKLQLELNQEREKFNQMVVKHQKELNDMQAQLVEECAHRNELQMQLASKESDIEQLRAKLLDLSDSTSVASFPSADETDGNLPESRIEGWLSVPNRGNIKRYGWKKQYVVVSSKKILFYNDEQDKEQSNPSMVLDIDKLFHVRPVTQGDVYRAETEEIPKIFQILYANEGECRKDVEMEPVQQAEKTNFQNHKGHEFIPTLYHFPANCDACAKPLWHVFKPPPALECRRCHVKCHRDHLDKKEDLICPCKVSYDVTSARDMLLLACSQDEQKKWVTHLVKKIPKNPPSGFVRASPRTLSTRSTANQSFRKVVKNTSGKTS
The target of a further test is ROCK2 (Homo sapiens (Human), UniProt O75116). Put plainly: Z'Lyte assay, ROCK2 inhibition at a single concentration. It is filed as biochemical. The conditions noted are these: read-out: % inhibition (ROCK2) 1 uM, 1 uM.
Sequence of ROCK2 (O75116 whole entry): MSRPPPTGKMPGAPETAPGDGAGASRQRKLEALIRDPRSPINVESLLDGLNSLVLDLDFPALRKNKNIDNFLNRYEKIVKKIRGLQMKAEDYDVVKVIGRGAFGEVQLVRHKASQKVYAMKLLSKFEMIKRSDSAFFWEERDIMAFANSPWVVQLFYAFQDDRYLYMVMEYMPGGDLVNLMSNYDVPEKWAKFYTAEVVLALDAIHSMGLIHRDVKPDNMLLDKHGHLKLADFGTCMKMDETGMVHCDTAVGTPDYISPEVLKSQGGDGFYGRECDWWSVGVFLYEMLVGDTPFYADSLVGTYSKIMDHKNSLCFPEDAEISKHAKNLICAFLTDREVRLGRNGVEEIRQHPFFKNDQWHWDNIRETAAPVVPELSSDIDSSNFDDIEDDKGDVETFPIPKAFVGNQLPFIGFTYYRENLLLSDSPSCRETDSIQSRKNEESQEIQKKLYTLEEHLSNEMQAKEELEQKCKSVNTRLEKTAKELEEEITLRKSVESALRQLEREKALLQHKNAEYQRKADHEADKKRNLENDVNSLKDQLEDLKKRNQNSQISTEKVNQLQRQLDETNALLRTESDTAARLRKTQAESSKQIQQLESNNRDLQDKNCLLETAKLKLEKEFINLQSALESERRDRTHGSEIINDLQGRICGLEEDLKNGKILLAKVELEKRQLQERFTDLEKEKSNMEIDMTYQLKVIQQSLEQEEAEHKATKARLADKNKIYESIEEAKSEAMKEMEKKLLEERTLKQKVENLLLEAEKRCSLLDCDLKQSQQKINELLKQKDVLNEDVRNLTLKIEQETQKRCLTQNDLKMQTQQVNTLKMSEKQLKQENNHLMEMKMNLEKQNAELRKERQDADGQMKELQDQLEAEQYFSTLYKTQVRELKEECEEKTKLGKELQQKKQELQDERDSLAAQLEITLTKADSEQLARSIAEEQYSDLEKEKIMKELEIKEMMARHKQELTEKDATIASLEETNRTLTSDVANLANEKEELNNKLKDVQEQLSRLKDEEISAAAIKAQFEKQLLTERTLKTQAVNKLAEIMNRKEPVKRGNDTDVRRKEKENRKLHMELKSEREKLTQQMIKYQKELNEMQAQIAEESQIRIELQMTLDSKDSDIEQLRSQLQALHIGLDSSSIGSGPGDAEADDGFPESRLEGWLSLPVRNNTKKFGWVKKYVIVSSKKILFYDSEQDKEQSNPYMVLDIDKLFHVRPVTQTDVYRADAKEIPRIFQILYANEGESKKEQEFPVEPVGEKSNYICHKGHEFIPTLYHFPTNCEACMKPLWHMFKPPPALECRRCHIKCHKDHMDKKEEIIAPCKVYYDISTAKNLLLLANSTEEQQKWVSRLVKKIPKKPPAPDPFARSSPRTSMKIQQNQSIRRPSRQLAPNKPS
The subject of test [4] is U2OS cells. The test can be described thus: Wound-healing migration assay. It is filed as cell-based. The conditions noted are these: 2.5 μM, 24 h.
In test [5] the test system is cofilin phosphorylation, MPNST90-8 cells. The test can be described thus: Cofilin phosphorylation by Western Blot in MPNST90-8 cells. It is filed as cell-based. The following applies: read-out: % inhibition Cofilin phosphorylation MPNST90-8 cells treated 2 h with 25 uM of inhibitor, MPNST90-8 cells, 25 uM.

Where two headings read alike, the source gives them in different places.

As for `CC(C)C(=O)Nc1ncc(-c2cc(C(F)F)nn2-c2c(Cl)cccc2Cl)s1` [LIMKi3], the EC50 in the test with HeLa cells came to 9 µM.

Regarding `Cc1cc(C(=O)Nc2cccc(C(=O)Nc3cccc(C(F)(F)F)c3)c2)on1` [Compound T56-LIMKi], in the test with MPNST cell line, the EC50 was approximately 20 µM.

Turning to `Cc1c[nH]c2ncnc(C3=CCN(C(=O)Nc4cccc(Oc5ccccc5)c4)CC3)c12` [Compound 15, 4-(5-Methyl-7H-pyrrolo[2,3-d]pyrimidin-4-yl)-N-(3-phenoxy-phenyl)-3,6-dihydropyridine-1(2H)-carboxamide], the Ki was found to be 0.0144 µM on LIMK2 and 0.0194 µM on LIMK1. Also, the inhibition at 25 µM in test [1] (HeLa, read-out: % inhibition of cofilin phosphorylation in HeLa cells (treatment 2 h, at 25 μM), Table 2, normalized to the control condition DMSO) turned out to be 92.1%; in test [1] (read-out: % inhibition Cofilin phosphorylation HeLa cells treated 2 h with 25 uM of inhibitor, HeLa cells, 25 uM), 92.1%; in test [2], 78.6%; in [5], 83.2%. In the test with U2OS cells [3], the “effects on microtubule dynamics (mitotic spindles)” value was “strong effects on microtubule dynamics”. The figures for the inhibition at 1 µM at ROCK1 and on ROCK2 were 44% and 24%, respectively. Also, the “inhibition of U2OS cell migration upon scratch” value with U2OS cells [4] is recorded as “particularly efficient”.
